{"source": "paper PMC9582194", "about": "“The effect of helix-inducing constraints and downsizing upon a transcription block survival-derived functional cJun antagonist” (Cell Reports. Physical Science, 2022)", "key": {"[1]": {"conditions": "CD thermal denaturation of peptide alone, 222 nm", "procedure": "The LZ domain of HW1 has four point mutations from its parent sequence, FosW, which is known to homodimerize.[24]\nProtein/DNA samples were suspended in 20 mM potassium phosphate, 150 mM potassium fluoride, and 2 mM TCEP (pH 7.4). cJun was added to DNA before addition of antagonist peptide, and these samples were equilibrated for 30 min before measurement."}, "[2]": {"test": "Peptide fraction helicity by CD at 222 nm, peptide-only samples", "format": "physicochemical", "conditions": "CD signal at 222 nm of peptide-only samples; pH 7.4 phosphate/KF/TCEP buffer; duplicate experiments", "how_it_was_run": "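Fraction helicity of each peptide alone was derived from the CD signal at 222 nm. Separately, thermal denaturation of heterodimers with a 60-residue cJun bZIP construct was used to obtain Tm.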"}, "cJun": {"target": "T1, cJun (Homo sapiens, UniProt P05412)", "T1 construct": "The same 60 amino acid cJun construct, encompassing the entire bZIP domain, was used for all experiments", "T1 sequence (P05412 252-315 limits assumed)": "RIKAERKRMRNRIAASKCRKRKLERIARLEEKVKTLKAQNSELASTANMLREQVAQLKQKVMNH", "test": "CD thermal denaturation of peptide-cJun heterodimers (Tm)", "format": "binding", "conditions": "CD ellipticity at 222 nm, 1-90 °C; peptide (5 μM)/cJun (5 μM); 20 mM potassium phosphate, 150 mM potassium fluoride, 2 mM TCEP pH 7.4; two-state fit; duplicate experiments, ± one SD", "how_it_was_run": "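Peptide/cJun heterodimers (each 5 μM, 60-residue cJun bZIP construct) melted while CD was monitored to give Tm. For antagonism, peptides titrated into pre-incubated cJun (20 μM) with TRE DNA (5 μM); shift of a DNA-specific CD peak toward free TRE gave fraction bound, Hill fit gave IC50; triplicates.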"}}}
{"substance": "Ac-LVVEEDVLEEEIEQLEERNYALRKEIEDLQKQLEKL-NH2 [HW5]", "values": [{"measurement": "Tm of peptide alone", "setting": "[1]", "value": 41, "unit": "°C"}, {"measurement": "fH, peptide fraction helicity", "setting": "[2]", "value": 46.7, "unit": "%"}, {"measurement": "Tm of peptide-cJun heterodimer", "setting": "cJun", "value": "62.8 ± 1.0", "unit": "°C"}]}
